Assay results as given in patent US20140259191A1, “FISH ANESTHETIC AND METHOD” (AQUA-MOR TECHNOLOGIES LTD., priority 2011, published 2014).

Tested on: common carp
Assay: Five-hour sedation of common carp, linalool versus 2-phenoxyethanol
Type: in vivo
Details: linalool 40 ppm, 2-PE 200 ppm; for Number of fish exhibiting loss of upright position: 26° C.
Protocol: 2-Phenoxyethanol (2-PE) is used to sedate fish in vaccinations procedures for relatively long periods of time (3 hours). 35 common carp were placed in each of two 60-liter tanks containing water at 26° C. Into one tank was added linalool (in a formulation as described in Example 28) to a concentration of 40 ppm; into the other tank was added 2-PE to a concentration of 200 ppm. Sedation of fish was determined by observation of loss of upright position, operculum movement and response to stimulus (handling). Total exposure time was five hours, at the end of which the fish were transferred 60-liter recovery tanks containing untreated water.

OCCOc1ccccc1 [2-phenoxyethanol, 2-Phenoxyethanol, reference compound]
Number of fish exhibiting loss of upright position (35 common carp per tank, time 10:30 (start), aeration): 0 | Number of fish exhibiting loss of upright position (35 common carp per tank, time 11:00 (start 10:30), no aeration): 1 | Number of fish exhibiting loss of upright position (35 common carp per tank, time 11:40 (start 10:30), no aeration): 2 | Number of fish exhibiting loss of upright position (35 common carp per tank, time 12:35 (start 10:30), no aeration): 2 | Number of fish exhibiting loss of upright position (35 common carp per tank, time 13:35 (start 10:30), no aeration): 2 | Number of fish exhibiting loss of upright position (35 common carp per tank, time 14:30 (start 10:30), aeration): 2 | Number of fish exhibiting loss of upright position (35 common carp per tank, time 15:30 (start 10:30), aeration): None | survival at transfer to recovery tank (35 common carp per tank, after five hours exposure): All alive | reflex response over the 5 hours of exposure (common carp): reduced substantially from the beginning of the trial and increased with the passage of time until the end of the trial | sedative effect between 3 and 5 hours of exposure (common carp): reduced | recovery after placement in a recovery tank (common carp, after five hours exposure): recovered quickly in few minutes and did not show signs of stress | response to external stimulation during the first 3 hours (common carp, sedation levels enabled handling): did not respond to external stimulation
